In patent US9926282B2, “Phthalazinones and isoquinolinones as rock inhibitors” (BRISTOL-MYERS SQUIBB COMPANY, priority 2013, dated 2018):
Values belong to the molecule of their own block, whether it stands above or below them.

Assays:
[1] = biological target: ROCK2 (Homo sapiens (Human), UniProt O75116); assay: ROCK assay (LABCHIP peptide phosphorylation), ROCK2; assay type: biochemical; settings: 5 μM ATP, 1.5 μM peptide substrate
[2] = biological target: ROCK1 (Homo sapiens (Human), UniProt Q13464); assay: ROCK assay (LABCHIP peptide phosphorylation), ROCK1; assay type: biochemical; settings: 5 μM ATP, 1.5 μM peptide substrate; read-out: ROCK1 IC50
Sequence of ROCK1 (Q13464 whole entry, species assumed): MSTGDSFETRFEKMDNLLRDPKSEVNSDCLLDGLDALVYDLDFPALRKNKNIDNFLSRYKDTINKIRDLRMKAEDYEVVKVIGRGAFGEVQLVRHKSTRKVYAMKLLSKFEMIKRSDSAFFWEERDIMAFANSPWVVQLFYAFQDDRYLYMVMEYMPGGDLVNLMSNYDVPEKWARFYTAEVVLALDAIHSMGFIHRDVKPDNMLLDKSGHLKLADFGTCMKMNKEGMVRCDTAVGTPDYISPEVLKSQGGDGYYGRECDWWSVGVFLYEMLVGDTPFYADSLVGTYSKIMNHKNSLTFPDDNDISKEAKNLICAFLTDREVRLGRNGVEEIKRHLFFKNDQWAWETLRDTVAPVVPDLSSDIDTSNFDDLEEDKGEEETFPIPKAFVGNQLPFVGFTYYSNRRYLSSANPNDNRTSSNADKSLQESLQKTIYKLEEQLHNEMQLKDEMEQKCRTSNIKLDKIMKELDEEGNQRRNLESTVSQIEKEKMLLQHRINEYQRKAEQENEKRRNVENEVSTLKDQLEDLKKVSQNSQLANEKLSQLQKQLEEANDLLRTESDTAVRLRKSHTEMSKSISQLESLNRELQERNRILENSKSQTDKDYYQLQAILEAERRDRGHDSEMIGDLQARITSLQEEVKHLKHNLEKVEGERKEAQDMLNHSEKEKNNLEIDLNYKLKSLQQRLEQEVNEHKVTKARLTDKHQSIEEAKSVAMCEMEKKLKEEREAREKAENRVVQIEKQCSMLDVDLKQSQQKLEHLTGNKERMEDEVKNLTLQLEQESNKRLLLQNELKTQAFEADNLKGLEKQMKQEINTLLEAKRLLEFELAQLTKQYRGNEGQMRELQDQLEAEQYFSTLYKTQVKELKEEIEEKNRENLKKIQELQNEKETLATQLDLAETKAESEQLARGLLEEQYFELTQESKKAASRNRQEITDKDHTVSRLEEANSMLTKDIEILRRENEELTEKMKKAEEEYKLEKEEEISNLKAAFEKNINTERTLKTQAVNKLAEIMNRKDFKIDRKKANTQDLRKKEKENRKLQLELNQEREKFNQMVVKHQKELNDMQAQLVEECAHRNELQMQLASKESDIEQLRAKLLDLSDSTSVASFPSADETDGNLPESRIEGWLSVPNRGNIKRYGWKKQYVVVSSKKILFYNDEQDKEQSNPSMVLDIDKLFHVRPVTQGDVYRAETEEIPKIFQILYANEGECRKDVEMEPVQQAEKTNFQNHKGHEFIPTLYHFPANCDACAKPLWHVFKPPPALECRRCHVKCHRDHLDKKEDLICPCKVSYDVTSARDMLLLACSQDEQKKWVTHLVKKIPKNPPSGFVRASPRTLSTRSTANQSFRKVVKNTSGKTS

Sequence of ROCK2 (O75116 whole entry, species assumed): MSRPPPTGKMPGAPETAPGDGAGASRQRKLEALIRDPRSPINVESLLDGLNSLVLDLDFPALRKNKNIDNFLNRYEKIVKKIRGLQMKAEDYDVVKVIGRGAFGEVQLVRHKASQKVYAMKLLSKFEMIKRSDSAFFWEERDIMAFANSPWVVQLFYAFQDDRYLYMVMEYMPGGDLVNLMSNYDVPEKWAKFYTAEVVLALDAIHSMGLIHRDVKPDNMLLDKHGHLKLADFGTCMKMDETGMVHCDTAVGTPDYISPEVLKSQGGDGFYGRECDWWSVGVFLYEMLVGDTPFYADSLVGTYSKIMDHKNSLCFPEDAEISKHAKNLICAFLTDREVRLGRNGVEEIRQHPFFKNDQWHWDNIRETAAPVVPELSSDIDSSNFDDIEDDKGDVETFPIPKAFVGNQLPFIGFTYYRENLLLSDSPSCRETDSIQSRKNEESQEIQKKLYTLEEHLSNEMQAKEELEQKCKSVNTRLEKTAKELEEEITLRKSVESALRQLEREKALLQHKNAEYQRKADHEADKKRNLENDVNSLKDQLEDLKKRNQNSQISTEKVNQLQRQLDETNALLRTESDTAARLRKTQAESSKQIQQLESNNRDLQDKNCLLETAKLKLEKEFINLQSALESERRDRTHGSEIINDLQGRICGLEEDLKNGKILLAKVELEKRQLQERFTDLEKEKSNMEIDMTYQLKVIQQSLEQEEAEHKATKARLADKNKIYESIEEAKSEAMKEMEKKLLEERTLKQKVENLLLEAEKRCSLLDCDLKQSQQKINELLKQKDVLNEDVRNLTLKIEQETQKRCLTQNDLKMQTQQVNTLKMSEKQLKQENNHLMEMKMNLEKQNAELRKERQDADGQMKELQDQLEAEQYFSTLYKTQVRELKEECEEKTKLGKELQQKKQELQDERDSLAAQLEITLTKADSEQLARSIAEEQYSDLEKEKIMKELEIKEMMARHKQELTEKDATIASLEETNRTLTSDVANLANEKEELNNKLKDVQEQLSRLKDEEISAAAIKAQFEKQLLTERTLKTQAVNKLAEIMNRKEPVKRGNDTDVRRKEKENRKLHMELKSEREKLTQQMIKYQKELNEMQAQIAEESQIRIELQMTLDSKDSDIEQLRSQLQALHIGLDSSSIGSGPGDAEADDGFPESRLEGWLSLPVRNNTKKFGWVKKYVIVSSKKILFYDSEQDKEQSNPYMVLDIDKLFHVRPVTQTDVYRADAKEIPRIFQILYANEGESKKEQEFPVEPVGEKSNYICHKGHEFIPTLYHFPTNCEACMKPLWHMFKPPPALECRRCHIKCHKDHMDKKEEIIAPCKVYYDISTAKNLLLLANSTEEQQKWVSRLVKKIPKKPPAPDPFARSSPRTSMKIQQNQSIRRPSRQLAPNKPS

SMILES: CC(C)(O)CNC(=O)Cn1nc(C(=O)Nc2ccc(-c3n[nH]c(=O)c4ccccc34)cc2)c2ccccc21 [Example 334, 1-(2-((2-Hydroxy-2-methylpropyl)amino)-2-oxoethyl)-N-(4-(4-oxo-3,4-dihydrophthalazin-1-yl)phenyl)-1H-indazole-3-carboxamide]
IC50 [1]: 0.1 to 100 nM | IC50 [2]: 0.1 to 100 nM

SMILES: O=C(Cn1nc(C(=O)Nc2ccc(-c3n[nH]c(=O)c4ccccc34)cc2)c2ccccc21)NCC1(O)CCC1 [Example 335, 1-(2-(((1-Hydroxycyclobutyl)methyl)amino)-2-oxoethyl)-N-(4-(4-oxo-3,4-dihydrophthalazin-1-yl)phenyl)-1H-indazole-3-carboxamide]
IC50 [1]: 0.1 to 100 nM | IC50 [2]: 0.1 to 100 nM

SMILES: CC(C)(O)CNC(=O)CCn1nc(C(=O)Nc2ccc(-c3n[nH]c(=O)c4ccccc34)cc2)c2ccccc21 [Example 336, 1-(3-((2-Hydroxy-2-methylpropyl)amino)-3-oxopropyl)-N-(4-(4-oxo-3,4-dihydrophthalazin-1-yl)phenyl)-1H-indazole-3-carboxamide]
IC50 [1]: 0.1 to 100 nM | IC50 [2]: 0.1 to 100 nM

SMILES: O=C(Nc1ccc(-c2n[nH]c(=O)c3ccccc23)cc1)c1nn(CCC(=O)N2CCOCC2)c2ccccc12 [Example 337, 1-(3-Morpholino-3-oxopropyl)-N-(4-(4-oxo-3,4-dihydrophthalazin-1-yl)phenyl)-1H-indazole-3-carboxamide]
IC50 [1]: 0.1 to 100 nM | IC50 [2]: 0.1 to 100 nM

SMILES: O=C(Nc1ccc(-c2n[nH]c(=O)c3ccccc23)cc1)c1nn(CC2CNC2)c2ccccc12 [Example 338, 1-(Azetidin-3-ylmethyl)-N-(4-(4-oxo-3,4-dihydrophthalazin-1-yl)phenyl)-1H-indazole-3-carboxamide]
IC50 [1]: 101 to 1000 nM | IC50 [2]: 0.1 to 100 nM

SMILES: CC(=O)N1CC(Cn2nc(C(=O)Nc3ccc(-c4n[nH]c(=O)c5ccccc45)cc3)c3ccccc32)C1 [Example 339, 1-((1-Acetylazetidin-3-yl)methyl)-N-(4-(4-oxo-3,4-dihydrophthalazin-1-yl)phenyl)-1H-indazole-3-carboxamide]
IC50 [1]: 0.1 to 100 nM | IC50 [2]: 0.1 to 100 nM

SMILES: CN1CC(Cn2nc(C(=O)Nc3ccc(-c4n[nH]c(=O)c5ccccc45)cc3)c3ccccc32)C1 [Example 340, 1-((1-Methylazetidin-3-yl)methyl)-N-(4-(4-oxo-3,4-dihydrophthalazin-1-yl)phenyl)-1H-indazole-3-carboxamide]
IC50 [1]: 0.1 to 100 nM | IC50 [2]: 0.1 to 100 nM

SMILES: COC(=O)N1CC(Cn2nc(C(=O)Nc3ccc(-c4n[nH]c(=O)c5ccccc45)cc3)c3ccccc32)C1 [Example 341, Methyl 3-((3-((4-(4-oxo-3,4-dihydrophthalazin-1-yl)phenyl)carbamoyl)-1H-indazol-1-yl)methyl)azetidine-1-carboxylate]
IC50 [1]: 0.1 to 100 nM | IC50 [2]: 0.1 to 100 nM

SMILES: CC(=O)N1CCC(Cn2nc(C(=O)Nc3ccc(-c4n[nH]c(=O)c5ccccc45)cc3)c3ccccc32)CC1 [Example 343, 1-((1-Acetylpiperidin-4-yl)methyl)-N-(4-(4-oxo-3,4-dihydrophthalazin-1-yl)phenyl)-1H-indazole-3-carboxamide]
IC50 [1]: 0.1 to 100 nM | IC50 [2]: 0.1 to 100 nM

SMILES: COC(=O)N1CCC(Cn2nc(C(=O)Nc3ccc(-c4n[nH]c(=O)c5ccccc45)cc3)c3ccccc32)CC1 [Example 344, Methyl 4-((3-((4-(4-oxo-3,4-dihydrophthalazin-1-yl)phenyl)carbamoyl)-1H-indazol-1-yl)methyl)piperidine-1-carboxylate]
IC50 [1]: 0.1 to 100 nM | IC50 [2]: 0.1 to 100 nM

SMILES: COc1cc(NC(=O)c2nn(CC(C)(C)O)c3ccccc23)ccc1-c1n[nH]c(=O)c2ccccc12 [Example 345, 1-(2-Hydroxy-2-methylpropyl)-N-(3-methoxy-4-(4-oxo-3,4-dihydrophthalazin-1-yl)phenyl)-1H-indazole-3-carboxamide]
IC50 [1]: 0.1 to 100 nM | IC50 [2]: 101 to 1000 nM

SMILES: CCOc1cc(NC(=O)c2nn(CC(C)(C)O)c3ccccc23)ccc1-c1n[nH]c(=O)c2ccccc12 [Example 346, N-(3-Ethoxy-4-(4-oxo-3,4-dihydrophthalazin-1-yl)phenyl)-1-(2-hydroxy-2-methylpropyl)-1H-indazole-3-carboxamide]
IC50 [1]: 101 to 1000 nM | IC50 [2]: 1000 to 50000 nM

SMILES: CCOc1cc(NC(=O)c2nn(CC3CCOC3)c3ccccc23)ccc1-c1n[nH]c(=O)c2ccccc12 (stereo not shown) [Example 347, N-(3-Ethoxy-4-(4-oxo-3,4-dihydrophthalazin-1-yl)phenyl)-1-((tetrahydrofuran-3-yl)methyl)-1H-indazole-3-carboxamide]
IC50 [1]: 101 to 1000 nM | IC50 [2]: 1000 to 50000 nM

SMILES: COc1cc(NC(=O)c2nn(CC3CCOC3)c3ccccc23)ccc1-c1n[nH]c(=O)c2ccccc12 (stereo not shown) [Example 348, N-(3-Methoxy-4-(4-oxo-3,4-dihydrophthalazin-1-yl)phenyl)-1-((tetrahydrofuran-3-yl)methyl)-1H-indazole-3-carboxamide]
IC50 [1]: 0.1 to 100 nM | IC50 [2]: 101 to 1000 nM

SMILES: CC(C)OC(=O)N1CCC(Cn2nc(C(=O)Nc3ccc(-c4n[nH]c(=O)c5ccccc45)cc3)c3ccccc32)CC1 [Example 349, Propan-2-yl 4-[(3-{[4-(4-oxo-3,4-dihydrophthalazin-1-yl)phenyl]carbamoyl}-1H-indazol-1-yl)methyl]piperidine-1-carboxylate]
IC50 [1]: 0.1 to 100 nM | IC50 [2]: 0.1 to 100 nM

SMILES: O=C(Nc1ccc(-c2n[nH]c(=O)c3ccccc23)cc1)c1nn(CC2CCN(C(=O)OCCF)CC2)c2ccccc12 [Example 350, 2-Fluoroethyl 4-[(3-{[4-(4-oxo-3,4-dihydrophthalazin-1-yl)phenyl]carbamoyl}-1H-indazol-1-yl)methyl]piperidine-1-carboxylate]
IC50 [1]: 0.1 to 100 nM | IC50 [2]: 0.1 to 100 nM

SMILES: O=C(Nc1ccc(-c2n[nH]c(=O)c3ccccc23)cc1)c1nn(CC2CCN(C(=O)OCC(F)(F)F)CC2)c2ccccc12 [Example 351, 2,2,2-Trifluoroethyl 4-[(3-{[4-(4-oxo-3,4-dihydrophthalazin-1-yl)phenyl]carbamoyl}-1H-indazol-1-yl)methyl]piperidine-1-carboxylate]
IC50 [1]: 0.1 to 100 nM | IC50 [2]: 0.1 to 100 nM

SMILES: COc1cc(-c2n[nH]c(=O)c3ccccc23)ccc1NC(=O)c1nn(CC2CCOC2)c2ccccc12 (stereo not shown) [Example 352, N-(2-Methoxy-4-(4-oxo-3,4-dihydrophthalazin-1-yl)phenyl)-1-((tetrahydrofuran-3-yl)methyl)-1H-indazole-3-carboxamide]
IC50 [1]: 101 to 1000 nM | IC50 [2]: 1000 to 50000 nM

SMILES: CC(C)(O)Cn1nc(C(=O)Nc2ccc(-c3n[nH]c(=O)c4ccccc34)cc2O)c2ccccc21 [Example 353, 1-(2-Hydroxy-2-methylpropyl)-N-(2-hydroxy-4-(4-oxo-3,4-dihydrophthalazin-1-yl)phenyl)-1H-indazole-3-carboxamide]
IC50 [1]: 0.1 to 100 nM | IC50 [2]: 101 to 1000 nM

SMILES: O=C(Nc1ccc(-c2n[nH]c(=O)c3ccccc23)cc1O)c1nn(CC2CCOC2)c2ccccc12 (stereo not shown) [Example 354, N-(2-Hydroxy-4-(4-oxo-3,4-dihydrophthalazin-1-yl)phenyl)-1-((tetrahydrofuran-3-yl)methyl)-1H-indazole-3-carboxamide]
IC50 [1]: 0.1 to 100 nM | IC50 [2]: 0.1 to 100 nM

SMILES: O=C(Nc1ccc(-c2n[nH]c(=O)c3ccccc23)c(CO)c1)c1nn(CC2CCOC2)c2ccccc12 (stereo not shown) [Example 355, N-(3-(Hydroxymethyl)-4-(4-oxo-3,4-dihydrophthalazin-1-yl)phenyl)-1-((tetrahydrofuran-3-yl)methyl)-1H-indazole-3-carboxamide]
IC50 [1]: 0.1 to 100 nM | IC50 [2]: 1000 to 50000 nM

SMILES: CN1CCC(Cn2nc(C(=O)Nc3ccc(-c4n[nH]c(=O)c5ccccc45)cc3)c3ccccc32)CC1 [Example 356, 1-((1-Methylpiperidin-4-yl)methyl)-N-(4-(4-oxo-3,4-dihydrophthalazin-1-yl)phenyl)-1H-indazole-3-carboxamide]
IC50 [1]: 101 to 1000 nM | IC50 [2]: 0.1 to 100 nM

SMILES: COc1cc(-c2n[nH]c(=O)c3ccccc23)ccc1NC(=O)c1nn(CC(C)(C)O)c2ccccc12 [Example 357, 1-(2-Hydroxy-2-methylpropyl)-N-(2-methoxy-4-(4-oxo-3,4-dihydrophthalazin-1-yl)phenyl)-1H-indazole-3-carboxamide]
IC50 [1]: 101 to 1000 nM | IC50 [2]: 1000 to 50000 nM

SMILES: O=C(Nc1ccc(-c2n[nH]c(=O)c3ccccc23)c(CO)c1)c1nn(CCO)c2ccccc12 [Example 359, 1-(2-Hydroxyethyl)-N-(3-(hydroxymethyl)-4-(4-oxo-3,4-dihydrophthalazin-1-yl)phenyl)-1H-indazole-3-carboxamide]
IC50 [1]: 0.1 to 100 nM | IC50 [2]: 1000 to 50000 nM

SMILES: CC(C)(O)Cn1nc(C(=O)Nc2ccc(-c3n[nH]c(=O)c4ccccc34)c(CO)c2)c2ccccc21 [Example 360, 1-(2-Hydroxy-2-methylpropyl)-N-(3-(hydroxymethyl)-4-(4-oxo-3,4-dihydrophthalazin-1-yl)phenyl)-1H-indazole-3-carboxamide]
IC50 [1]: 0.1 to 100 nM | IC50 [2]: 1000 to 50000 nM

IC50 [1]: 0.1 to 100 nM | IC50 [2]: 1000 to 50000 nM
SMILES: O=C(Nc1ccc(-c2n[nH]c(=O)c3ccccc23)c(CO)c1)c1cnn2ccccc12 [Example 362, N-(3-(Hydroxymethyl)-4-(4-oxo-3,4-dihydrophthalazin-1-yl)phenyl)pyrazolo[1,5-a]pyridine-3-carboxamide]

IC50 [1]: 0.1 to 100 nM | IC50 [2]: 1000 to 50000 nM
SMILES: Cn1nc(C(=O)Nc2ccc(-c3n[nH]c(=O)c4ccccc34)c(CO)c2)c2ccccc21 [Example 363, N-(3-(Hydroxymethyl)-4-(4-oxo-3,4-dihydrophthalazin-1-yl)phenyl)-1-methyl-1H-indazole-3-carboxamide]

SMILES: CC(C)n1nc(C(=O)Nc2ccc(-c3n[nH]c(=O)c4ccccc34)c(CO)c2)c2ccccc21 [Example 364, N-(3-(Hydroxymethyl)-4-(4-oxo-3,4-dihydrophthalazin-1-yl)phenyl)-1-isopropyl-1H-indazole-3-carboxamide]
IC50 [1]: 0.1 to 100 nM | IC50 [2]: 101 to 1000 nM

IC50 ([1]; given as number): 222 nM | IC50 [2]: 1000 to 50000 nM
SMILES: O=C(Nc1ccc(-c2n[nH]c(=O)c3ccccc23)c(CO)c1)c1cnc2ccccn12 [Example 365, N-(3-(Hydroxymethyl)-4-(4-oxo-3,4-dihydrophthalazin-1-yl)phenyl)imidazo[1,2-a]pyridine-3-carboxamide]
